This assay addresses Factor D (Homo sapiens, UniProt P00746). Put plainly: Factor D esterolytic assay (Z-Lys-SBzl thioester substrate, DTNB, 405 nm). The assay is classed as biochemical. As to conditions: substrate Z-Lys-SBzl 1.29 mM, 100 mM HEPES, 500 mM NaCl, pH 7.5, 10% DMSO, tested a minimum of three times. An outline of the steps: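 Human Factor D hydrolysis of Z-Lys-SBzl (1.29 mM) monitored at 405 nm via DTNB thiol detection for 600 s, 690 nm background subtracted. Buffer 100 mM HEPES, 500 mM NaCl, pH 7.5, 10% DMSO; substrate added immediately or after room-temperature preincubation. IC50 from percent inhibition of rate, at least three tests.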

Factor D, sequence (P00746 26-253): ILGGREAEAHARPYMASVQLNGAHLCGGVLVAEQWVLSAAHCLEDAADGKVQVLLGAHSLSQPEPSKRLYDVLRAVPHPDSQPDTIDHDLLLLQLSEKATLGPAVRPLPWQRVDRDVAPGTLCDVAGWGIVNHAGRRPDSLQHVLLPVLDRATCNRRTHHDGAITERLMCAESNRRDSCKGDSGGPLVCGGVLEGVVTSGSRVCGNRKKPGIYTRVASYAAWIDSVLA

For `COC(=O)c1cn(CC(=O)N2C[C@H](F)C[C@H]2C(=O)NCc2cccc(Cl)c2F)c2ncnc(N)c12` [Compound 146a, methyl 4-amino-7-(2-((2S,4R)-2-((3-chloro-2-fluorobenzyl)carbamoyl)-4-fluoropyrrolidin-1-yl)-2-oxoethyl)-7H-pyrrolo[2,3-d]pyrimidine-5-carboxylate], the IC50 is above 1000 nM. In the case of `COC(=O)c1cnc2c(ccn2CC(=O)N2C[C@H](F)C[C@H]2C(=O)NCc2cccc(Cl)c2F)c1N` [Compound 147a, methyl 4-amino-1-(2-((2S,4R)-2-((3-chloro-2-fluorobenzyl)carbamoyl)-4-fluoropyrrolidin-1-yl)-2-oxoethyl)-1H-pyrrolo[2,3-b]pyridine-5-carboxylate], the IC50 is above 1000 nM. With `Nc1ncnc2c1c(I)cn2CC(=O)N1C[C@H](F)C[C@H]1C(=O)NCc1cccc(Cl)c1F` [Compound 148d, (2S,4R)-1-(2-(4-amino-5-iodo-7H-pyrrolo[2,3-d]pyrimidin-7-yl)acetyl)-N-(3-chloro-2-fluorobenzyl)-4-fluoropyrrolidine-2-carboxamide], the IC50 is 100 to 1000 nM. As to `Nc1ncnc2c1c(-c1ccc[nH]1)cn2CC(=O)N1C[C@H](F)C[C@H]1C(=O)NCc1cccc(Cl)c1F` [Compound 149b, (2S,4R)-1-(2-(4-amino-5-(1H-pyrrol-2-yl)-7H-pyrrolo[2,3-d]pyrimidin-7-yl)acetyl)-N-(3-chloro-2-fluorobenzyl)-4-fluoropyrrolidine-2-carboxamide], the IC50 fell in the range of 100 to 1000 nM. On to `Cc1cn(CC(=O)N2C[C@H](F)C[C@H]2C(=O)NCc2cccc(Cl)c2F)c2ncnc(N)c12` [Compound 150d, (2S,4R)-1-(2-(4-amino-5-methyl-7H-pyrrolo[2,3-d]pyrimidin-7-yl)acetyl)-N-(3-chloro-2-fluorobenzyl)-4-fluoropyrrolidine-2-carboxamide], for which the IC50 was in the range of 100 to 1000 nM. As for `Nc1c(C(=O)O)cnc2c1ccn2CC(=O)N1C[C@H](F)C[C@H]1C(=O)NCc1cccc(Cl)c1F` [Compound 151a, 4-amino-1-(2-((2S,4R)-2-((3-chloro-2-fluorobenzyl)carbamoyl)-4-fluoropyrrolidin-1-yl)-2-oxoethyl)-1H-pyrrolo[2,3-b]pyridine-5-carboxylic acid], the concentration for half-maximal inhibition (IC50) fell in the range of 100 to 1000 nM. Consider `Cc1nc2c(N)ncnc2n1CC(=O)N1C[C@H](F)C[C@H]1C(=O)NCc1cccc(Cl)c1F` [Compound 152d, (2S,4R)-1-(2-(6-amino-8-methyl-9H-purin-9-yl)acetyl)-N-(3-chloro-2-fluorobenzyl)-4-fluoropyrrolidine-2-carboxamide], for which the concentration for half-maximal inhibition (IC50) fell in the range of 100 to 1000 nM. Under `Nc1ncnc2c1c(C(=O)O)cn2CC(=O)N1C[C@H](F)C[C@H]1C(=O)NCc1cccc(Cl)c1F` [Compound 153a, 4-amino-7-(2-((2S,4R)-2-((3-chloro-2-fluorobenzyl)carbamoyl)-4-fluoropyrrolidin-1-yl)-2-oxoethyl)-7H-pyrrolo[2,3-d]pyrimidine-5-carboxylic acid] stands above 1000 nM. `CSc1cn(CC(=O)N2[C@@H]3C[C@@H]3C[C@H]2C(=O)Nc2cccc(Br)n2)c2ncnc(N)c12` [Compound 154e, (1R,3S,5R)-2-(2-(4-amino-5-(methylthio)-7H-pyrrolo[2,3-d]pyrimidin-7-yl)acetyl)-N-(6-bromopyridin-2-yl)-2-azabicyclo[3.1.0]hexane-3-carboxamide]: the IC50 lay within 100 to 1000 nM. On to `Nc1c(C(=O)O)cnc2c1ccn2CC(=O)N1[C@@H]2C[C@@H]2C[C@H]1C(=O)Nc1cccc(Br)n1` [Compound 155f, 4-amino-1-(2-((1R,3S,5R)-3-((6-bromopyridin-2-yl)carbamoyl)-2-azabicyclo[3.1.0]hexan-2-yl)-2-oxoethyl)-1H-pyrrolo[2,3-b]pyridine-5-carboxylic acid], for which the IC50 was above 1000 nM. The figure for `Nc1c(C=O)cnc2c1ccn2CC(=O)N1[C@@H]2C[C@@H]2C[C@H]1C(=O)Nc1cccc(Br)n1` [Compound 156e, (1R,3S,5R)-2-(2-(4-amino-5-formyl-1H-pyrrolo[2,3-b]pyridin-1-yl)acetyl)-N-(6-bromopyridin-2-yl)-2-azabicyclo[3.1.0]hexane-3-carboxamide] is 100 to 1000 nM. Consider `Nc1c(CO)cnc2c1ccn2CC(=O)N1[C@@H]2C[C@@H]2C[C@H]1C(=O)Nc1cccc(Br)n1` [Compound 157a, (1R,3S,5R)-2-(2-(4-amino-5-(hydroxymethyl)-1H-pyrrolo[2,3-b]pyridin-1-yl)acetyl)-N-(6-bromopyridin-2-yl)-2-azabicyclo[3.1.0]hexane-3-carboxamide], for which the 50% inhibitory concentration (IC50) fell in the range of 100 to 1000 nM. As to `Cc1cc2c(N)ncnc2n1CC(=O)N1[C@@H]2C[C@@H]2C[C@H]1C(=O)Nc1cccc(Br)n1` [Compound 158e, (1R,3S,5R)-2-(2-(4-amino-6-methyl-7H-pyrrolo[2,3-d]pyrimidin-7-yl)acetyl)-N-(6-bromopyridin-2-yl)-2-azabicyclo[3.1.0]hexane-3-carboxamide], the half-inhibitory concentration (IC50) is 100 to 1000 nM. Turning to `COc1ccc2c(c1)c1c(N)ncnc1n2CC(=O)N1[C@H](C(=O)Nc2cccc(Br)n2)C[C@@]2(C)C[C@@H]12` [Compound 159a, (1R,3S,5R)-2-(2-(4-amino-6-methoxy-9H-pyrimido[4,5-b]indol-9-yl)acetyl)-N-(6-bromopyridin-2-yl)-5-methyl-2-azabicyclo[3.1.0]hexane-3-carboxamide], the IC50 is below 100 nM. For `C[C@@]12C[C@@H](C(=O)Nc3cccc(Br)n3)N(C(=O)Cn3c4ccc(Br)cc4c4c(N)ncnc43)[C@@H]1C2` [Compound 160a, (1R,3S,5R)-2-(2-(4-amino-6-bromo-9H-pyrimido[4,5-b]indol-9-yl)acetyl)-N-(6-bromopyridin-2-yl)-5-methyl-2-azabicyclo[3.1.0]hexane-3-carboxamide], the IC50 was below 100 nM. Under `C[C@@]12C[C@@H](C(=O)Nc3cccc(Br)n3)N(C(=O)Cn3c4ccc(C(=O)O)cc4c4c(N)ncnc43)[C@@H]1C2` [Compound 161a, 4-amino-9-(2-((1R,3S,5R)-3-((6-bromopyridin-2-yl)carbamoyl)-5-methyl-2-azabicyclo[3.1.0]hexan-2-yl)-2-oxoethyl)-9H-pyrimido[4,5-b]indole-6-carboxylic acid] stands below 100 nM; under `Nc1ncnc2c1c1cccnc1n2CC(=O)N1[C@@H]2C[C@@H]2C[C@H]1C(=O)Nc1cccc(Br)n1` [Compound 162g, (1R,3S,5R)-2-(2-(4-amino-9H-pyrido[3′,2′:4,5]pyrrolo[2,3-d]pyrimidin-9-yl)acetyl)-N-(6-bromopyridin-2-yl)-2-azabicyclo[3.1.0]hexane-3-carboxamide], below 100 nM. The figure for `Nc1ncnc2c1c1cnccc1n2CC(=O)N1[C@@H]2C[C@@H]2C[C@H]1C(=O)Nc1cccc(Br)n1` [Compound 163g, (1R,3S,5R)-2-(2-(4-amino-9H-pyrido[3′,4′:4,5]pyrrolo[2,3-d]pyrimidin-9-yl)acetyl)-N-(6-bromopyridin-2-yl)-2-azabicyclo[3.1.0]hexane-3-carboxamide] is below 100 nM; for `C[C@@]12C[C@@H](C(=O)Nc3cccc(Br)n3)N(C(=O)Cn3c4ccc(O)cc4c4c(N)ncnc43)[C@@H]1C2` [Compound 164a, (1R,3S,5R)-2-(2-(4-amino-6-hydroxy-9H-pyrimido[4,5-b]indol-9-yl)acetyl)-N-(6-bromopyridin-2-yl)-5-methyl-2-azabicyclo[3.1.0]hexane-3-carboxamide] it is below 100 nM.

For the origin of these results see patent publication US12679843B2, “Pyrrolopyrimidine amines as complement inhibitors” (BioCryst Pharmaceuticals, Inc., priority 2020, dated 2026).
